Experimental data: ChEMBL document CHEMBL6103538, “Carbonic anhydrases: Moiety appended derivatives, medicinal and pharmacological implications” (Bioorg Med Chem, 2024)

How the values were obtained:
Carbonic anhydrase 2 [1] = biological target: T1, Carbonic anhydrase 2 (Homo sapiens, UniProt P00918); experiment: Binding affinity to human CA II assessed as inhibition constant by spectrophotometric analysis
Carbonic anhydrase 1 [2] = biological target: T2, Carbonic anhydrase 1 (Homo sapiens, UniProt P00915); experiment: Binding affinity to human CA I assessed as inhibition constant
T2 sequence (P00915 whole entry): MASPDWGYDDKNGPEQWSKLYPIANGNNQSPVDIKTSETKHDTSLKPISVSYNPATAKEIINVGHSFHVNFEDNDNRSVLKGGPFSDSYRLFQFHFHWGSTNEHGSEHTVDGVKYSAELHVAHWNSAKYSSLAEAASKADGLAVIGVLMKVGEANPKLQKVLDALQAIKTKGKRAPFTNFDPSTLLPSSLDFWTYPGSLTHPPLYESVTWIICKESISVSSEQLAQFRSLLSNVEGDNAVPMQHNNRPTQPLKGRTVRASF

Carbonic anhydrase 2 [3] = biological target: T1, Carbonic anhydrase 2; experiment: Binding affinity to human CA II assessed as inhibition constant
Carbonic anhydrase 1 [4] = biological target: T2, Carbonic anhydrase 1; experiment: Binding affinity to human CA I assessed as inhibition constant by spectrophotometric analysis
Carbonic anhydrase 9 = Carbonic anhydrase 9 (Homo sapiens, UniProt Q16790); experiment: Binding affinity human CA IX assessed as inhibition constant
[5] = biological target: Carbonic anhydrase 5B, mitochondrial (Homo sapiens, UniProt Q9Y2D0); experiment: Binding affinity to human CA VB-catalysed CO2 hydration activity assessed as inhibition constant pre-incubated for 15 mins by stopped-flow instrument method
Sequence of Carbonic anhydrase 5B, mitochondrial (Q9Y2D0 whole entry): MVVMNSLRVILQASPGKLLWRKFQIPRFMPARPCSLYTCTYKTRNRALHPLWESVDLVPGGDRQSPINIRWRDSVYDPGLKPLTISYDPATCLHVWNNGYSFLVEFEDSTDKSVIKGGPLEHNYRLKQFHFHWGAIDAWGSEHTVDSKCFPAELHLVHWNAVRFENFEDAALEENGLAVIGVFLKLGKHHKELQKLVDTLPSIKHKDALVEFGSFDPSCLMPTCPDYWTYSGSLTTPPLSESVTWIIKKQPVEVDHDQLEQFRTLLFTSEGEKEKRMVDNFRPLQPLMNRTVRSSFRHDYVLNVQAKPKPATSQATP

Carbonic anhydrase 2 [6] = biological target: T1, Carbonic anhydrase 2; experiment: Binding affinity to human Carbonic anhyrase 2 assessed as inhibition constant pre-incubated for 10 mins by stopped-flow instrument based assay
Carbonic anhydrase 1 [7] = biological target: T2, Carbonic anhydrase 1; experiment: Binding affinity to human Carbonic anhyrase 1 assessed as inhibition constant pre-incubated for 10 mins by stopped-flow instrument based assay
Homo sapiens = organism: Homo sapiens; experiment: Selectivity ratio of IC50 for human CA I to IC50 for human CA II
Carbonic anhydrase 2 [8] = biological target: T1, Carbonic anhydrase 2; experiment: Binding affinity to human CA II assessed as inhibition constant pre-incubated for 15 mins by stopped-flow CO2-hydrase assay method
MCF7 [9] = experiment: cells; format: functional, cell-based; settings: Homo sapiens
HCT-116 = experiment: cells; format: functional, cell-based; settings: Homo sapiens
Description: Cytotoxicity against human HCT-116 cells

HepG2 = experiment: Antiproliferative activity against human HepG2 cells assessed as reduction in cell viability by SRB assay; format: functional, cell-based
A549 = experiment: Antiproliferative activity against human A549 cells assessed as reduction in cell viability by SRB assay; format: functional, cell-based
MCF7 [10] = experiment: Antiproliferative activity against human MCF7 cells assessed as reduction in cell viability by SRB assay; format: functional, cell-based
MCF7 [11] = experiment: Anticancer activity against human MCF7 cells assessed as reduction in cell viability under normoxia condition; format: functional, cell-based
MDA-MB-231 [12] = experiment: Anticancer activity against human MDA-MB-231 cells assessed as reduction in cell viability under hypoxia condition; format: functional, cell-based
[13] = Inhibition of Hsp70 (unknown origin); parameters: species or system Homo sapiens
MDA-MB-231 [14] = experiment: Anticancer activity against human MDA-MB-231 cells assessed as reduction in cell viability under normoxia condition; format: functional, cell-based
Carbonic anhydrase 12 = Carbonic anhydrase 12 (Homo sapiens, UniProt O43570); experiment: Binding affinity to human CA XII assessed as inhibition constant
Sequence of Carbonic anhydrase 12 (O43570 whole entry): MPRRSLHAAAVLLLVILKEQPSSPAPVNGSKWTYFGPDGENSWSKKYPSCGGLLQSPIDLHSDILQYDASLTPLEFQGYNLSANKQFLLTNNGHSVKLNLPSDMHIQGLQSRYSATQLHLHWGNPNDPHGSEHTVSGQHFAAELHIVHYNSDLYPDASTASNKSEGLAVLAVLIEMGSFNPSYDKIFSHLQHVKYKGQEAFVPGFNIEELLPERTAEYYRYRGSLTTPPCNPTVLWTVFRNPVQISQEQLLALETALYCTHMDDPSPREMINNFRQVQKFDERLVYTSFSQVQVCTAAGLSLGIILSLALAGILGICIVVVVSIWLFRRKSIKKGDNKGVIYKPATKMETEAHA

MCF7 [15] = experiment: Anticancer activity against human MCF7 cells assessed as reduction in cell viability under hypoxia condition; format: functional, cell-based
MCF7 [16] = experiment: Cytotoxicity against human MCF7 cells assessed as reduction in cell viability incubated for 24 hrs by MTT assay; format: functional, cell-based; settings: MCF7, 24 h

SMILES: Cc1ccnc(NS(=O)(=O)c2ccc(NC(=S)NC(=O)c3ccc(F)cc3)cc2)n1
- Ki (Carbonic anhydrase 2 [1]): 8.15 nM

SMILES: Cn1c(N)c(NCc2ccc(Br)cc2O)c(=O)n(C)c1=O
- Ki (Carbonic anhydrase 1 [2]): 36.1 nM

SMILES: CCOC(=O)c1sc(NC(=O)c2ccc(S(N)(=O)=O)cc2)nc1C(F)(F)F
- Ki (Carbonic anhydrase 2 [3]): 7.36 nM
- Ki (Carbonic anhydrase 1 [2]): 38.5 nM

SMILES: O=C(NC(=S)Nc1ccc(S(=O)(=O)Nc2nccs2)cc1)c1ccccc1
- Ki (Carbonic anhydrase 1 [4]): 20.7 nM

SMILES: Cc1sc2ncnc(Nc3ccc(S(N)(=O)=O)cc3)c2c1C
- Ki (Carbonic anhydrase 9): 16.1 nM

SMILES: Cc1ccc(NC(=O)SOS(N)(=O)=O)cc1
- Ki [5]: 462 nM

SMILES: CC(=O)c1ccc(N/N=N/c2ccc(S(=O)(=O)NC(=N)N)cc2)cc1
- Ki (Carbonic anhydrase 1 [2]): 6.44 nM

SMILES: Cc1ccc(C(=O)/C=C/c2cn(Cc3cn(-c4ccc(S(N)(=O)=O)cc4)nn3)c3ccccc23)cc1
- Ki (Carbonic anhydrase 2 [6]): 36.2 nM
- Ki (Carbonic anhydrase 1 [7]): 50.4 nM

SMILES: NS(=O)(=O)c1ccc(C(=O)Nc2nc(C(=O)OCCCN3CCOCC3)cs2)cc1
- Ki (Carbonic anhydrase 2 [3]): 6.92 nM
- Ki (Carbonic anhydrase 1 [2]): 27.3 nM

SMILES: COC(=O)[C@H]1O[C@@H](NC(=O)c2ccc(S(N)(=O)=O)cc2)[C@H](O)[C@@H](O)[C@@H]1O
- Ratio IC50 (Homo sapiens): 44.4

SMILES: NS(=O)(=O)c1ccc(-c2ccc(-c3cnc(C(=O)N4CCNCC4)o3)s2)cc1
- Ki (Carbonic anhydrase 2 [8]): 4 nM

SMILES: O=C(NC(=S)Nc1ccc(S(=O)(=O)Nc2nccs2)cc1)c1ccc(F)cc1
- Ki (Carbonic anhydrase 1 [4]): 14 nM

SMILES: COc1ccc(C2C(C#N)=C(N)Oc3c2c(C)nn3-c2ccc(S(N)(=O)=O)cc2)cc1O (configuration not stated)
- IC50 (MCF7 [9]): 1880 nM
- IC50 (HCT-116): 4620 nM
- Ki (Carbonic anhydrase 9): 12 nM

SMILES: Cc1ccc(-c2c(/C=N/NC(=O)C34CC5CC(CC(C5)C3)C4)n[nH]c2-c2ccccc2)cc1
- IC50 (HepG2): < 5000 nM
- IC50 (A549): < 5000 nM
- IC50 (MCF7 [10]): < 5000 nM

SMILES: COc1cccc(NC(=O)Nc2ccc(S(N)(=O)=O)cc2)c1
- IC50 (MCF7 [11]): 4600 nM
- IC50 (MDA-MB-231 [12]): 12500 nM
- IC50 [13]: 19400 nM
- Ki (Carbonic anhydrase 9): 4.1 nM
- IC50 (MDA-MB-231 [14]): 6300 nM
- Ki (Carbonic anhydrase 12): 9.1 nM
- IC50 (MCF7 [15]): 14400 nM

SMILES: COc1ccc(-c2cs/c(=N\C(=O)c3c(F)cccc3F)n2C2=C(N)C(=O)c3ccccc3C2=O)cc1
- Ki (Carbonic anhydrase 2 [3]): 55.3 nM

SMILES: CC(=O)C(C)/C(C)=N/NC(=O)C12CC3CC(CC(C3)C1)C2 (configuration not stated)
- IC50 (HepG2): < 5000 nM
- IC50 (A549): < 5000 nM
- IC50 (MCF7 [10]): < 5000 nM

SMILES: Cc1ccc(C(C)C)cc1OCc1cn(CCCCCCOc2ccc3ccc(=O)oc3c2)nn1
- IC50 (MCF7 [16]): 2480 nM

SMILES: CCOc1ccccc1NC(=O)SOS(N)(=O)=O
- Ki [5]: 271 nM

SMILES: NS(=O)(=O)c1ccc(-n2cc(Cn3cc(/C=C/C(=O)c4ccc(Br)cc4)c4ccccc43)nn2)cc1
- Ki (Carbonic anhydrase 2 [6]): 468 nM
- Ki (Carbonic anhydrase 1 [7]): 18.8 nM

SMILES: N=C(N)NS(=O)(=O)c1ccc(/N=N/Nc2c(F)c(F)c(F)c(F)c2F)cc1
- Ki (Carbonic anhydrase 2 [3]): 8.16 nM
